Test results: ChEMBL document CHEMBL5678818, “Discovery of potent SOS1 inhibitors that block RAS activation via disruption of the RAS-SOS1 interaction” (Proc Natl Acad Sci U S A, 2019)

Key:
[1] = test system: Tyrosine-protein kinase ABL1 (Homo sapiens), P00519 [H396P]; test: Inhibition of phosphorylated ABL1 H396P mutant (unknown origin) assessed as residual activity at 100 nM by KINOMEscan analysis relative to control
[2] = molecular target: Dual specificity tyrosine-phosphorylation-regulated kinase 1A (Homo sapiens) (UniProt Q13627); test: Inhibition of DYRK1A (unknown origin) assessed as residual activity at 100 nM by KINOMEscan analysis relative to control
[3] = test system: Epidermal growth factor receptor (Homo sapiens), P00533 [UNDEFINED MUTATION]; test: Inhibition of EGFR L747-E749del/A750P mutant (unknown origin) assessed as residual activity at 100 nM by KINOMEscan analysis relative to control
Chain of Epidermal growth factor receptor (Homo sapiens), P00533 [UNDEFINED MUTATION] (P00533 whole entry, looked up, stated change not applied): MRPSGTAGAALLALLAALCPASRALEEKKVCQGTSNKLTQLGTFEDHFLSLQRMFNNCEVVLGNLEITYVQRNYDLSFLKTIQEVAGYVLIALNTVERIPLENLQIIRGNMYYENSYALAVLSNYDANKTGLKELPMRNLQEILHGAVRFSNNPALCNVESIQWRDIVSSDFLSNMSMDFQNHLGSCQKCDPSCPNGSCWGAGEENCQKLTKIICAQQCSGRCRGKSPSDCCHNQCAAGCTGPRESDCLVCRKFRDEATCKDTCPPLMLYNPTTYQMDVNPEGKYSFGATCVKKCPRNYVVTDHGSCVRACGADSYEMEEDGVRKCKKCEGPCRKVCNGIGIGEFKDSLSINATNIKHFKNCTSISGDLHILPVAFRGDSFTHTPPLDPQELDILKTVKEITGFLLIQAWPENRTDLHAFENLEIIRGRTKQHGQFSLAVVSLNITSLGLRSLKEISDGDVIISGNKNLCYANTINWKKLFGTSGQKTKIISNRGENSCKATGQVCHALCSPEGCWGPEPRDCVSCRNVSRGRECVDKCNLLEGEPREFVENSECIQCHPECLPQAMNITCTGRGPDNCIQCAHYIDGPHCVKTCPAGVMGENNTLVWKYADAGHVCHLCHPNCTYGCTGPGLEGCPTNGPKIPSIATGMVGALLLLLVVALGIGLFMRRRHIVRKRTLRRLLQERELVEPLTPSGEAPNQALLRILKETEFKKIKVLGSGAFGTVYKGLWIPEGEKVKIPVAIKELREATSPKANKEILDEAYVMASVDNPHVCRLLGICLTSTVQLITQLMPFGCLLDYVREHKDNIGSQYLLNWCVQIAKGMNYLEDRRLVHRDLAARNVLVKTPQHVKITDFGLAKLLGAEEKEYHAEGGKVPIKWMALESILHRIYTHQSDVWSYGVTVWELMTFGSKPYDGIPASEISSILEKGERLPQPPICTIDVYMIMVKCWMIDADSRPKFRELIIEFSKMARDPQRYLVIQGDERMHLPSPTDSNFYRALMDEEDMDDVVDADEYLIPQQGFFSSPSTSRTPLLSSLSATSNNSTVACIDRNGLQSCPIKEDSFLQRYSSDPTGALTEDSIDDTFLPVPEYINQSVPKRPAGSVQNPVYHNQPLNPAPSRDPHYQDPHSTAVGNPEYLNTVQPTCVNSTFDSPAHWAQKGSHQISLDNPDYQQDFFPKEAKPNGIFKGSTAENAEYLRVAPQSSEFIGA

[4] = molecular target: T1, Inhibitor of nuclear factor kappa-B kinase subunit epsilon (Homo sapiens) (UniProt Q14164); test: Inhibition of IKK-epsilon (unknown origin) assessed as residual activity at 100 nM by KINOMEscan analysis relative to control
T1 sequence (whole entry): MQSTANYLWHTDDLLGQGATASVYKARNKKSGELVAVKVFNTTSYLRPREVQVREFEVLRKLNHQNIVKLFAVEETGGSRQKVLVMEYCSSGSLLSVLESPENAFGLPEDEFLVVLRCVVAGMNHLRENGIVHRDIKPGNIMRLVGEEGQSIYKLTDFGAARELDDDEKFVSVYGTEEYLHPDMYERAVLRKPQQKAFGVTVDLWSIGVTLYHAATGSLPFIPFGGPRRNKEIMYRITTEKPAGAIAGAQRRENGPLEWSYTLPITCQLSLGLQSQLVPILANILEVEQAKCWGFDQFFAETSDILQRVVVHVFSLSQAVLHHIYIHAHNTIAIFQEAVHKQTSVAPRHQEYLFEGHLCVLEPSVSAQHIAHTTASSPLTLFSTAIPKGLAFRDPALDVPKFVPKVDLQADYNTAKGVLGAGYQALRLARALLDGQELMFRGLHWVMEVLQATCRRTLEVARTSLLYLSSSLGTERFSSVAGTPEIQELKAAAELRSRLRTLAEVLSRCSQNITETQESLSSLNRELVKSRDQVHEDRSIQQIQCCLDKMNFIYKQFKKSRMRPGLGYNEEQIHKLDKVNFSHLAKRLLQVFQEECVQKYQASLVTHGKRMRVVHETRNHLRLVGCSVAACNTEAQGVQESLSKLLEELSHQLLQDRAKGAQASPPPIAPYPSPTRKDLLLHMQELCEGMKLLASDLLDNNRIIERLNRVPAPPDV

[5] = molecular target: Macrophage-stimulating protein receptor (Homo sapiens) (UniProt Q04912); test: Inhibition of MST1R (unknown origin) assessed as residual activity at 100 nM by KINOMEscan analysis relative to control
Chain of Macrophage-stimulating protein receptor (Homo sapiens) (Q04912 25-304 limits assumed): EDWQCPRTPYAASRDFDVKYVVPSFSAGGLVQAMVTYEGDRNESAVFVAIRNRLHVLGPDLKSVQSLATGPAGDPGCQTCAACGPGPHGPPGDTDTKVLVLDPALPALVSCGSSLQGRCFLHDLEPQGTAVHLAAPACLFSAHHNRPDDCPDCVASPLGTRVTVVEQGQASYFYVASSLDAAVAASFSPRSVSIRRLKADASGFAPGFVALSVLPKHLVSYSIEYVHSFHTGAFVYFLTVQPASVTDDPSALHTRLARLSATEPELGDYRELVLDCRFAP
Chain of Macrophage-stimulating protein receptor (Homo sapiens) (Q04912 310-1400 limits assumed): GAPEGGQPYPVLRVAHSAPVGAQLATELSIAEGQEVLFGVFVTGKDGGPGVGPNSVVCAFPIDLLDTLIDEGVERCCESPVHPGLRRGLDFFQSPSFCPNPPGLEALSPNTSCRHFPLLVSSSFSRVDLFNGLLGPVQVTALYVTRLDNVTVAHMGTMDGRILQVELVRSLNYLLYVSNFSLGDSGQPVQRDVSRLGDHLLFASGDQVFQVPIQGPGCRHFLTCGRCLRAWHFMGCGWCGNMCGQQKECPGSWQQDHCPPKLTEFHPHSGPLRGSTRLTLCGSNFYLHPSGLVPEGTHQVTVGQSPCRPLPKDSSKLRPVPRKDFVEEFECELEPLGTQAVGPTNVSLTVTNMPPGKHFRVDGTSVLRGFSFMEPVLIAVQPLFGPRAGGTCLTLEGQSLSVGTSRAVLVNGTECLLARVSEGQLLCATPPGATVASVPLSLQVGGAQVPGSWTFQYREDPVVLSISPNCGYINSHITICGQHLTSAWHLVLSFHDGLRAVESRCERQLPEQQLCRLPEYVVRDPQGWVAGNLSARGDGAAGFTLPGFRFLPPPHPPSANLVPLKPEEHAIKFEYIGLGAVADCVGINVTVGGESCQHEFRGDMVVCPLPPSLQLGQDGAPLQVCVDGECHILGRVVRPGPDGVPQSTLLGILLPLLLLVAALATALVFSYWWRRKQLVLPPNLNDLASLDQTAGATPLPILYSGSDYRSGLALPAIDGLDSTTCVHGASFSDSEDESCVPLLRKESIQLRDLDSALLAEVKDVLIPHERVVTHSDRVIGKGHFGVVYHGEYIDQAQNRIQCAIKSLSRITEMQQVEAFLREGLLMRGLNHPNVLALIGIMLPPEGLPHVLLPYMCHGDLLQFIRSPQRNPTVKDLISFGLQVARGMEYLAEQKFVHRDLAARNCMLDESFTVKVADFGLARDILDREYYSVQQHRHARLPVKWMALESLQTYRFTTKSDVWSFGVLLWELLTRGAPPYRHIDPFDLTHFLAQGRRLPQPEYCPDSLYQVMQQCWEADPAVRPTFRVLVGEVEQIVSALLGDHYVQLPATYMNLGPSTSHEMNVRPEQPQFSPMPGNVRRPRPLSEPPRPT

[6] = molecular target: Ribosomal protein S6 kinase alpha-1 (Homo sapiens) (UniProt Q15418); test: Inhibition of C-terminal RSK1 kinetic domain 2 (unknown origin) assessed as residual activity at 100 nM by KINOMEscan analysis relative to control
Chain of Ribosomal protein S6 kinase alpha-1 (Homo sapiens) (Q15418 whole entry, the tested form may be a part): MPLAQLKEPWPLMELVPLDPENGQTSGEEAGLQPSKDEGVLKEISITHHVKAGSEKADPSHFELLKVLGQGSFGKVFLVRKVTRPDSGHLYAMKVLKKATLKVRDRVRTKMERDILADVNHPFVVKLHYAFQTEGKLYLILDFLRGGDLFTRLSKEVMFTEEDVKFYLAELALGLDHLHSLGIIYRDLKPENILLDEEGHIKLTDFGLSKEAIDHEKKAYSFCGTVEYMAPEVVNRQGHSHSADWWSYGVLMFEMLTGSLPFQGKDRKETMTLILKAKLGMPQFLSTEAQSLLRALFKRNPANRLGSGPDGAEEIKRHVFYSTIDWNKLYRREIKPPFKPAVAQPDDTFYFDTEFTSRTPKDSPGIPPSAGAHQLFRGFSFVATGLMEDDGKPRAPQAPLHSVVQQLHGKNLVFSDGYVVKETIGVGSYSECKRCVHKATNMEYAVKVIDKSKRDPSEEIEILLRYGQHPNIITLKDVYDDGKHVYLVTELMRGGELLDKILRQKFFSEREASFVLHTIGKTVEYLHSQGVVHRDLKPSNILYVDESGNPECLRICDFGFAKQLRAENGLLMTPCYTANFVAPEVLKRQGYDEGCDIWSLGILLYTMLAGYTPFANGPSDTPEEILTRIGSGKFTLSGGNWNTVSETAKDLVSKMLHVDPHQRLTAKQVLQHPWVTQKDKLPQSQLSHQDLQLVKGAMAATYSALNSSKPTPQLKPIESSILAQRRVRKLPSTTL

[7] = molecular target: T2, Serine/threonine-protein kinase Sgk2 (Homo sapiens) (UniProt Q9HBY8); test: Inhibition of SGK2 (unknown origin) assessed as residual activity at 100 nM by KINOMEscan analysis relative to control
T2 sequence (whole entry): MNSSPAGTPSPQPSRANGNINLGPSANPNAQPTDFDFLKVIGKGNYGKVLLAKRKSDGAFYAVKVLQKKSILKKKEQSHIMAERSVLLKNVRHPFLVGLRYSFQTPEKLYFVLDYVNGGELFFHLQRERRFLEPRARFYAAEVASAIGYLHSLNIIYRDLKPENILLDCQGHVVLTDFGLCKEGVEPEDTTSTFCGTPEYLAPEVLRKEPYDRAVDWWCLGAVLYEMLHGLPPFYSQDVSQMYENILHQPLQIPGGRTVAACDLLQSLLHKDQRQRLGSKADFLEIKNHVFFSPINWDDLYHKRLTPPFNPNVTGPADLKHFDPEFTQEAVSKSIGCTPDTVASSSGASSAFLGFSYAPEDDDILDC

[8] = molecular target: Dual specificity testis-specific protein kinase 1 (Homo sapiens) (UniProt Q15569); test: Inhibition of TESK1 (unknown origin) assessed as residual activity at 100 nM by KINOMEscan analysis relative to control
Chain of Dual specificity testis-specific protein kinase 1 (Homo sapiens) (Q15569 whole entry, looked up): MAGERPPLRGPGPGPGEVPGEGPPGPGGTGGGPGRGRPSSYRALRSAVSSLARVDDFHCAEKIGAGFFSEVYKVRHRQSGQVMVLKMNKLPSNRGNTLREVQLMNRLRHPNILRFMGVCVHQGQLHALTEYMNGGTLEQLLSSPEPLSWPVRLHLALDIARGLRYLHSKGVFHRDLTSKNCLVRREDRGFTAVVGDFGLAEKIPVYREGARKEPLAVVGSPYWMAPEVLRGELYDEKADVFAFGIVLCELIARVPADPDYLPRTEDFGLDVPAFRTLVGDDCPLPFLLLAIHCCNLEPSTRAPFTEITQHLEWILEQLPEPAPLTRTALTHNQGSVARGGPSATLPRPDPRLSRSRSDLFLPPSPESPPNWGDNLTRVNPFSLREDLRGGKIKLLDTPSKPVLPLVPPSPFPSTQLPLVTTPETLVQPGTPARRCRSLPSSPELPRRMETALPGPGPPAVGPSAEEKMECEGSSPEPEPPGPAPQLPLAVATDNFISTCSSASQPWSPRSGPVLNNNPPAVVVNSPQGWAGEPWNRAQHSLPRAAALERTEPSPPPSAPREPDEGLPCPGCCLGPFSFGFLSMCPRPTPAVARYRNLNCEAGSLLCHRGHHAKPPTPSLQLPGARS

[9] = molecular target: Tyrosine-protein kinase receptor Tie-1 (Homo sapiens) (UniProt P35590); test: Inhibition of TIE1 (unknown origin) assessed as residual activity at 100 nM by KINOMEscan analysis relative to control
Chain of Tyrosine-protein kinase receptor Tie-1 (Homo sapiens) (P35590 whole entry): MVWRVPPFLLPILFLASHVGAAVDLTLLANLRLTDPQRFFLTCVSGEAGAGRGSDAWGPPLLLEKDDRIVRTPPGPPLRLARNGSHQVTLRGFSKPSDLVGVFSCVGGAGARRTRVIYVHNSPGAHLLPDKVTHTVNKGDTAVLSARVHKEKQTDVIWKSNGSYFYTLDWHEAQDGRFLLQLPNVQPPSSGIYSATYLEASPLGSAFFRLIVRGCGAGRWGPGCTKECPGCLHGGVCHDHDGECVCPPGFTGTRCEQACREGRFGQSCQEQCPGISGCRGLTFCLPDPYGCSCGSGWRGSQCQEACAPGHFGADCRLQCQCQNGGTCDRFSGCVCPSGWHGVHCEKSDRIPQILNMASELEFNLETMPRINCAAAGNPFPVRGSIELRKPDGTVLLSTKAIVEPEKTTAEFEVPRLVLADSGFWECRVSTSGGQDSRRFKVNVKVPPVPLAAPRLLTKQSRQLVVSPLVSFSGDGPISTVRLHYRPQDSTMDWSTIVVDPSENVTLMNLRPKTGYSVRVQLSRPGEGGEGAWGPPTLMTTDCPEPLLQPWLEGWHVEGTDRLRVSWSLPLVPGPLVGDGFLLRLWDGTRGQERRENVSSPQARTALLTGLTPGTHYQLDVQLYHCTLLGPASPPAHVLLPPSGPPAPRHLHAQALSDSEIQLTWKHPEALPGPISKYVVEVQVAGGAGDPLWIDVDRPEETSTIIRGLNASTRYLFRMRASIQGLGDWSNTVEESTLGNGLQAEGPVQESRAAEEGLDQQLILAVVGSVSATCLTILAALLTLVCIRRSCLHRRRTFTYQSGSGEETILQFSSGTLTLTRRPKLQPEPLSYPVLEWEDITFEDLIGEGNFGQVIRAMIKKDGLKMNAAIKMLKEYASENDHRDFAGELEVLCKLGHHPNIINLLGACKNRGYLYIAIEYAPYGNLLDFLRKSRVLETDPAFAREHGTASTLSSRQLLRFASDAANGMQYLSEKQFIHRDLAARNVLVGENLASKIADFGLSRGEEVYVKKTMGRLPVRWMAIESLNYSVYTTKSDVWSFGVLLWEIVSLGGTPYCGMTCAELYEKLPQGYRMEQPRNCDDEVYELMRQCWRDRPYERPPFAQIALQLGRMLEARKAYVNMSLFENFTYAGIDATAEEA

[10] = molecular target: T3, Tyrosine-protein kinase TXK (Homo sapiens) (UniProt P42681); test: Inhibition of TXK (unknown origin) assessed as residual activity at 100 nM by KINOMEscan analysis relative to control
T3 sequence (whole entry): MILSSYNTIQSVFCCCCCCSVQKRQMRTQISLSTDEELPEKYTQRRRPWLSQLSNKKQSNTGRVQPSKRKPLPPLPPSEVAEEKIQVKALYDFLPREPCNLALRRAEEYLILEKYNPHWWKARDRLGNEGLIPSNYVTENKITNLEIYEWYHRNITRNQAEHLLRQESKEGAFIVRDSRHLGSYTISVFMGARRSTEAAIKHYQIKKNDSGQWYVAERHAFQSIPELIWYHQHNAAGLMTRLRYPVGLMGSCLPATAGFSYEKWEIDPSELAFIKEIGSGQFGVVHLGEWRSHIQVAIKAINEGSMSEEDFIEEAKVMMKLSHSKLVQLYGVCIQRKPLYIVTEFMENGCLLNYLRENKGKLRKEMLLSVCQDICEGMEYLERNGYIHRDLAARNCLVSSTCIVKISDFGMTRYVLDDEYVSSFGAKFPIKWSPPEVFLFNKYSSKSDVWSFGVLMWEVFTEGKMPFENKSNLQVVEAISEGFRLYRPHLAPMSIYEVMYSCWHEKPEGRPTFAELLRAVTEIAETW

## COc1cc2ncnc(N[C@H](C)c3cccc4ccccc34)c2cc1OC
[1]
  Activity: 92%
[2]
  Activity: 90%
[3]
  Activity: 92%
[4]
  Activity: 100%
[5]
  Activity: 100%
[6]
  Activity: 86%
[7]
  Activity: 97%
[8]
  Activity: 73%
[9]
  Activity: 85%
[10]
  Activity: 67%
